Measurements from PMC9070634 (Cell, 2021).

Columns and labels:
BcPycTIR [1] = molecular target: T1, BcPycTIR (Burkholderia cepacia, UniProt A0A0J5WTU0); assay: HPLC of NAD+ cleavage; assay type: biochemical; details: 500 uM NAD+, 500 nM protein, 250 nM cUMP as activator, 25 C, 1 h
T1 sequence (A0A0J5WTU0 1-303): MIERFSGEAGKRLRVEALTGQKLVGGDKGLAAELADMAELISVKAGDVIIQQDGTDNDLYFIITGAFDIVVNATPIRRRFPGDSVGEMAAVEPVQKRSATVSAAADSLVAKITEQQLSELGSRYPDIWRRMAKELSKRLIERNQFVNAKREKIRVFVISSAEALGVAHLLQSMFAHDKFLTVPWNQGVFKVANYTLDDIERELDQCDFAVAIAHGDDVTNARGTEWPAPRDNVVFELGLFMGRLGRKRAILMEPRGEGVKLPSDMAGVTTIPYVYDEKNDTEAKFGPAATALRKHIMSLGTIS

PaPycC = PaPycC (Pseudomonas aeruginosa, UniProt P0DV40); assay: thin-layer chromatography with alpha-32P-UTP; assay type: biochemical; details: labelled compound (trace); 10 mM MgCl2, 1 mM MnCl2, pH 8.5, 37 C
BcPycC = molecular target: T2, BcPycC (Burkholderia cepacia, UniProt A0A0J5ZXG5); assay: HPLC; assay type: biochemical; details: 10 mM MgCl2, 1 mM MnCl2, 37 C
T2 sequence (A0A0J5ZXG5 1-229 limits assumed): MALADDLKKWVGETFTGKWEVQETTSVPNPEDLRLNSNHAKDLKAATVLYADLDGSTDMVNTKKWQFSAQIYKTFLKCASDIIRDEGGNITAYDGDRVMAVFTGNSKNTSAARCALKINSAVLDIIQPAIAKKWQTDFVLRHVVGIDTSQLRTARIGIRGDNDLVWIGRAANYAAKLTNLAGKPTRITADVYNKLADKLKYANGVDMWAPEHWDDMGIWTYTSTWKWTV

BcPycTIR [2] = molecular target: T1, BcPycTIR; assay: fluorescence plate reader, initial rates; assay type: biochemical; details: 500 uM substrate, 1 uM protein, cUMP as activator, pH 7.5, 100 mM KCl
crystal structure = molecular target: the molecule itself; assay: crystal structure
[3] = molecular target: the molecule itself; assay: negative stain electron microscopy

Chain of PaPycC (P0DV40 whole entry): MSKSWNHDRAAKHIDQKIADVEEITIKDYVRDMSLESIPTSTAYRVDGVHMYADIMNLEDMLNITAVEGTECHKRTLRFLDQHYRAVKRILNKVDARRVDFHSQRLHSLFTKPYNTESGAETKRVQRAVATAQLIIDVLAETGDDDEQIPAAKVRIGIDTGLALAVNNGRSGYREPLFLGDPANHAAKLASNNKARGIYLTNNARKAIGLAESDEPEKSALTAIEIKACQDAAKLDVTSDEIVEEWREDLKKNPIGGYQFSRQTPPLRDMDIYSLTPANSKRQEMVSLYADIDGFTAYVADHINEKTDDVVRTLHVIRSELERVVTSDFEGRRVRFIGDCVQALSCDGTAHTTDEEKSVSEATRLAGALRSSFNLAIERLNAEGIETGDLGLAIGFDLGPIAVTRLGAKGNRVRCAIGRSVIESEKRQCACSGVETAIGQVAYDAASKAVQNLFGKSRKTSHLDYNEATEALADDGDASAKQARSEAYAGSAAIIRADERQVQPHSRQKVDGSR

Q: With `NC(=O)c1ccc[n+]([C@@H]2O[C@H](COP(=O)(O)OP(=O)(O)OC[C@H]3O[C@@H](n4cnc5c(N)ncnc54)[C@H](O)[C@@H]3O)[C@@H](O)[C@H]2O)c1` [NAD^+] as the molecule, how does the “HPLC of NAD+ cleavage” value (BcPycTIR [1]) read?
A: Incubation of BcPycTIR with cUMP triggered robust NADase activity

Q: For `O=c1ccn([C@@H]2O[C@H](COP(=O)(O)OP(=O)(O)OP(=O)(O)O)[C@@H](O)[C@H]2O)c(=O)[nH]1` [UTP], which “thin-layer chromatography with alpha-32P-UTP” value (PaPycC) is on record?
A: demonstrated that PaPycC is an active uridylate cyclase

Q: For `O=c1ccn([C@@H]2O[C@@H]3COP(=O)(O)O[C@H]3[C@H]2O)c(=O)[nH]1` [cUMP], which “HPLC; MSMS against standard” value (BcPycC) is on record?
A: MSMS fragmentation spectra of a cUMP standard (bottom) and the BcPycC cyclase product (top)

Q: Which “fluorescence plate reader, initial rates” value (BcPycTIR [2]) does the source give for `NC(=O)c1ccc[n+]([C@@H]2O[C@H](COP(=O)(O)OP(=O)(O)OC[C@H]3O[C@@H](n4cnc5c4ncn4ccnc54)[C@H](O)[C@@H]3O)[C@@H](O)[C@H]2O)c1` [ε-NAD^+] here?
A: NAD^+ cleavage activity of BcPycTIR using the fluorescent substrate ε-NAD^+

B1: clade B uridylate cyclase from Burkholderia cepacia LK29 (BcPycC) (enzyme)
chain: ALADDLKKWVGETFTGKWEVQETTSVPNPEDLRLNSNHAKDLKAATVLYADLDGSTDMVNTKKWQFSAQIYKTFLKCASDIIRDEGGNITAYDGDRVMAVFTGNSKNTSAARCALKINSAVLDIIQPAIAKKWQTDFVLRHVVGIDTSQLRTARIGIRGDNDLVWIGRAANYAAKLTNLAGKPTRITADVYNKLADKLKYANGVDMWAPEHWDDMGIWTYTSTWKWTV
Q: Does B1 bind (crystal structure)?
A: binds

B2: TIR-domain effector protein from Burkholderia cepacia LK29 (BcPycTIR) (enzyme)
chain: MIERFSGEAGKRLRVEALTGQKLVGGDKGLAAELADMAELISVKAGDVIIQQDGTDNDLYFIITGAFDIVVNATPIRRRFPGDSVGEMAAVEPVQKRSATVSAAADSLVAKITEQQLSELGSRYPDIWRRMAKELSKRLIERNQFVNAKREKIRVFVISSAEALGVAHLLQSMFAHDKFLTVPWNQGVFKVANYTLDDIERELDQCDFAVAIAHGDDVTNARGTEWPAPRDNVVFELGLFMGRLGRKRAILMEPRGEGVKLPSDMAGVTTIPYVYDEKNDTEAKFGPAATALRKHIMSLGTIS
Q: Does B2 bind [3]?
A: binds
